This experiment has as its system test plant species. Put plainly: Post-emergent herbicidal activity test (greenhouse, foliar spray, visual growth reduction). The experiment is classed as in vivo. The note with it: post-emergence, 336 h, 140 g ai/ha, 14 days after application. Put shortly: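 Seedlings were raised 7-21 d in a greenhouse under a 15 h photoperiod until the first or second true leaf. Each compound, dissolved in acetone:DMSO 97:3 and diluted into a surfactant-containing spray mixture, was then applied at 187 L/ha. Plants were subirrigated, and growth reduction was scored visually at 14 d.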

[1] abbreviates: ALOMY: blackgrass (Alopecurus myosuroides), read-out: Visual Growth Reduction (%) 14 Days After Application, ALOMY.
Setting [2] is: AMARE: redroot pigweed (Amaranthus retroflexus), read-out: Visual Growth Reduction (%) 14 Days After Application, AMARE.
Setting [3] is: AVEFA: wild oat (Avena fatua), read-out: Visual Growth Reduction (%) 14 Days After Application, AVEFA.
[4] abbreviates: CHEAL: lambsquarters (Chenopodium album), read-out: Visual Growth Reduction (%) 14 Days After Application, CHEAL.
Setting [5] is: CIRAR: canada thistle (Cirsium arvense), read-out: Visual Growth Reduction (%) 14 Days After Application, CIRAR.
The mark [6] stands for this setting: CYPES: yellow nutsedge (Cyperus esculentus), read-out: Visual Growth Reduction (%) 14 Days After Application, CYPES.
Where [7] appears, read: DIGSA: crabgrass (Digitaria sanguinalis), read-out: Visual Growth Reduction (%) 14 Days After Application, DIGSA.
[8] abbreviates: ECHCG: barnyardgrass (Echinochloa crus-galli), read-out: Visual Growth Reduction (%) 14 Days After Application, ECHCG.
[9] abbreviates: IPOHE: ivy-leaf morning glory (Ipomoea hederacea), read-out: Visual Growth Reduction (%) 14 Days After Application, IPOHE.
The mark [10] stands for this setting: KCHSC: kochia (Bassia scoparia), read-out: Visual Growth Reduction (%) 14 Days After Application, KCHSC.
The mark [11] stands for this setting: ORYSA: rice (Oryza sativa), read-out: Visual Growth Reduction (%) 14 Days After Application, ORYSA.
[12] abbreviates: SETFA: giant foxtail (Setaria faberi), read-out: Visual Growth Reduction (%) 14 Days After Application, SETFA.
Setting [13] is: SORVU: grain sorghum (Sorghum vulgare), read-out: Visual Growth Reduction (%) 14 Days After Application, SORVU.
Setting [14] is: STEME: common chickweed (Stellaria media), read-out: Visual Growth Reduction (%) 14 Days After Application, STEME.
The mark [15] stands for this setting: TRZAS: wheat, spring (Triticum aestivum), read-out: Visual Growth Reduction (%) 14 Days After Application, TRZAS.

The source of these data is US20230017045A1, “PYRIDINE AND PYRIMIDINE CARBOXYLATE HERBICIDES AND METHODS OF USE THEREOF” (Dow AgroSciences LLC, priority 2017, published 2023).

Read-outs that look alike come from different tables or passages of the source.

Take `O=C(O)c1nc(-c2cc(Br)c(C(F)(F)F)cc2Cl)c(F)cc1Cl` [F181, 6-(5-Bromo-2-chloro-4-(trifluoromethyl)phenyl)-3-chloro-5-fluoropicolinic acid]: the pest or weed control at 140 g/ha was in the range of 30 to 44% under setting [1]; 95 to 100% under setting [2]; 30 to 44% under setting [3]; 95 to 100% under setting [4]; 75 to 84% under setting [5]; 45 to 59% under setting [6]. Moreover, the pest or weed control at 140 g/ha runs as follows: under setting [7], 95 to 100%; under setting [8], 60 to 74%; under setting [9], 95 to 100%; under setting [10], 60 to 74%; under setting [11], 0 to 29%; under setting [12], 30 to 44%. Moreover, the pest or weed control at 140 g/ha was in the range of 95 to 100% under setting [13], 0 to 29% under setting [14] and 45 to 59% under setting [15].
As to `O=C(O)c1nc(-c2cc3c(cc2Cl)OC(F)(F)O3)c(Cl)cc1Cl` [F182, 3,5-Dichloro-6-(6-chloro-2,2-difluorobenzo[d][1,3]dioxol-5-yl)picolinic acid], the pest or weed control at 140 g/ha under setting [1] was in the range of 0 to 29%; the pest or weed control at 140 g/ha under setting [2] was 75 to 84%; the pest or weed control at 140 g/ha under setting [3] is 0 to 29%; the pest or weed control at 140 g/ha under setting [4] was 85 to 94%; the pest or weed control at 140 g/ha under setting [5] is 0 to 29%; the pest or weed control at 140 g/ha under setting [6] was in the range of 30 to 44%. For the same compound, the pest or weed control at 140 g/ha fell in the range of 60 to 74% under setting [7]; 0 to 29% under setting [8]; 95 to 100% under setting [9]; 45 to 59% under setting [10]; 0 to 29% under setting [11]; 60 to 74% under setting [12]. The pest or weed control at 140 g/ha runs as follows: under setting [13], 85 to 94%; under setting [14], 0 to 29%; under setting [15], 0 to 29%.
On to `O=C(O)c1nc(-c2cc3c(cc2Cl)OCO3)c(Cl)cc1Cl` [F183, 3,5-Dichloro-6-(6-chlorobenzo[d][1,3]dioxol-5-yl)picolinic acid], for which the pest or weed control at 140 g/ha by setting is: under setting [1], 0 to 29%; under setting [2], 60 to 74%; under setting [3], 0 to 29%; under setting [4], 0 to 29%; under setting [5], 30 to 44%; under setting [6], 0 to 29%. For the same compound, the pest or weed control at 140 g/ha is 0 to 29% under setting [7]; 0 to 29% under setting [8]; 75 to 84% under setting [9]; 0 to 29% under setting [10]; 0 to 29% under setting [11]; 0 to 29% under setting [12]. For the same compound, the pest or weed control at 140 g/ha by setting is: under setting [13], 0 to 29%; under setting [14], 0 to 29%; under setting [15], 0 to 29%.
In the case of `COC(=O)c1nc(-c2ncc(Cl)c(C(F)F)c2Cl)ccc1Cl` [F184], the pest or weed control at 140 g/ha under setting [1] lay in the range of 0 to 29%; the pest or weed control at 140 g/ha under setting [2] was 60 to 74%; the pest or weed control at 140 g/ha under setting [3] is 0 to 29%; the pest or weed control at 140 g/ha under setting [4] is 60 to 74%; the pest or weed control at 140 g/ha under setting [5] was in the range of 45 to 59%; the pest or weed control at 140 g/ha under setting [6] was 0 to 29%. Also, the pest or weed control at 140 g/ha runs as follows: under setting [7], 60 to 74%; under setting [8], 85 to 94%; under setting [9], 95 to 100%; under setting [10], 0 to 29%; under setting [11], 30 to 44%; under setting [12], 85 to 94%. Also, the pest or weed control at 140 g/ha was in the range of 95 to 100% under setting [13], 0 to 29% under setting [14] and 30 to 44% under setting [15].
Consider `COC(=O)c1nc(-c2ccc(OC(F)(F)F)cc2)c(F)cc1Cl` [F185, Methyl 3-chloro-5-fluoro-6-(4-(trifluoromethoxy)phenyl)picolinate], for which the pest or weed control at 140 g/ha runs as follows: under setting [1], 0 to 29%; under setting [2], 0 to 29%; under setting [3], 0 to 29%; under setting [4], 45 to 59%; under setting [5], 0 to 29%; under setting [6], 0 to 29%. For the same compound, the pest or weed control at 140 g/ha lay within 75 to 84% under setting [7]; 0 to 29% under setting [8]; 75 to 84% under setting [9]; 0 to 29% under setting [10]; 0 to 29% under setting [11]; 30 to 44% under setting [12]. For the same compound, the pest or weed control at 140 g/ha lay within 60 to 74% under setting [13], 0 to 29% under setting [14] and 0 to 29% under setting [15].
Consider `COC(=O)c1nc(-c2ccc(C#N)cc2Cl)c(F)cc1Cl` [F186, Methyl 3-chloro-6-(2-chloro-4-cyanophenyl)-5-fluoropicolinate], for which the pest or weed control at 140 g/ha is, setting by setting: under setting [1], 0 to 29%; under setting [2], 75 to 84%; under setting [3], 0 to 29%; under setting [4], 85 to 94%; under setting [5], 75 to 84%; under setting [6], 45 to 59%. Also, the pest or weed control at 140 g/ha is, setting by setting: under setting [7], 75 to 84%; under setting [8], 60 to 74%; under setting [9], 95 to 100%; under setting [10], 75 to 84%; under setting [11], 0 to 29%; under setting [12], 85 to 94%. Also, the pest or weed control at 140 g/ha is 85 to 94% under setting [13], 0 to 29% under setting [14] and 30 to 44% under setting [15].
Consider `COC(=O)c1nc(-c2ccc(OC(F)(F)F)cc2F)c(F)cc1Cl` [F187, Methyl 3-chloro-5-fluoro-6-(2-fluoro-4-(trifluoromethoxy)phenyl)picolinate], for which the pest or weed control at 140 g/ha reads like this: under setting [1], 0 to 29%; under setting [2], 85 to 94%; under setting [3], 30 to 44%; under setting [4], 75 to 84%; under setting [5], 75 to 84%; under setting [6], 30 to 44%. The pest or weed control at 140 g/ha is, setting by setting: under setting [7], 85 to 94%; under setting [8], 45 to 59%; under setting [9], 95 to 100%; under setting [10], 45 to 59%; under setting [11], 0 to 29%; under setting [12], 75 to 84%. Moreover, the pest or weed control at 140 g/ha by setting is: under setting [13], 95 to 100%; under setting [14], 0 to 29%; under setting [15], 30 to 44%.
As to `COC(=O)c1nc(-c2ccc3occc3c2)c(F)cc1Cl` [F188, Methyl 6-(benzofuran-5-yl)-3-chloro-5-fluoropicolinate], the pest or weed control at 140 g/ha under setting [1] is 0 to 29%; the pest or weed control at 140 g/ha under setting [2] was 0 to 29%; the pest or weed control at 140 g/ha under setting [3] lay in the range of 0 to 29%; the pest or weed control at 140 g/ha under setting [4] lay in the range of 60 to 74%; the pest or weed control at 140 g/ha under setting [5] lay in the range of 45 to 59%; the pest or weed control at 140 g/ha under setting [6] fell in the range of 0 to 29%. Further, the pest or weed control at 140 g/ha is, setting by setting: under setting [7], 30 to 44%; under setting [8], 0 to 29%; under setting [9], 30 to 44%; under setting [10], 0 to 29%; under setting [11], 0 to 29%; under setting [12], 0 to 29%. For the same compound, the pest or weed control at 140 g/ha runs as follows: under setting [13], 0 to 29%; under setting [14], 0 to 29%; under setting [15], 0 to 29%.
